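In this assay, cells in 96-well plates receive the compound at five concentrations for 48 hours. Endpoints are linearly interpolated between the surrounding concentrations. TGI: concentration producing complete growth inhibition.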
Legend:
Assay in all cases: inhibition of tumour cell growth, NCI panel, 48 h
RPMI-8226 leukemia = system: RPMI-8226 leukemia
IGROV1 ovarian = system: IGROV1 ovarian
CCRF-CEM leukemia = system: CCRF-CEM leukemia
RXF 393 renal = system: RXF 393 renal
UO-31 renal = system: UO-31 renal
K-562 leukemia = system: K-562 leukemia
SF-539 CNS = system: SF-539 CNS
A549 NSCLC = system: A549 NSCLC
SN12C renal = system: SN12C renal
UACC-257 melanoma = system: UACC-257 melanoma
OVCAR-8 ovarian = system: OVCAR-8 ovarian
SK-MEL-28 melanoma = system: SK-MEL-28 melanoma
HCT-15 colon = system: HCT-15 colon
KM12 colon = system: KM12 colon
786-0 renal = system: 786-0 renal
SR leukemia = system: SR leukemia
SF-268 CNS = system: SF-268 CNS
M19-MEL melanoma = system: M19-MEL melanoma
NCI-H23 lung = system: NCI-H23 lung
U251 CNS = system: U251 CNS
NCI-H226 lung = system: NCI-H226 lung
SNB-19 CNS = system: SNB-19 CNS
HCT-116 colon = system: HCT-116 colon
HOP-18 NSCLC = system: HOP-18 NSCLC
OVCAR-4 ovarian = system: OVCAR-4 ovarian
KM20L2 colon = system: KM20L2 colon
SK-OV-3 ovarian = system: SK-OV-3 ovarian
OVCAR-3 ovarian = system: OVCAR-3 ovarian
NCI-H522 lung = system: NCI-H522 lung
MOLT-4 leukemia = system: MOLT-4 leukemia
SK-MEL-2 melanoma = system: SK-MEL-2 melanoma
LXFL 529 NSCLC = system: LXFL 529 NSCLC
RXF-631 renal = system: RXF-631 renal
COLO 205 colon = system: COLO 205 colon
NCI-H460 lung = system: NCI-H460 lung
HT29 colon = system: HT29 colon
SNB-75 CNS = system: SNB-75 CNS
CAKI-1 renal = system: CAKI-1 renal
MALME-3M melanoma = system: MALME-3M melanoma
TK-10 renal = system: TK-10 renal
M14 melanoma = system: M14 melanoma
SK-MEL-5 melanoma = system: SK-MEL-5 melanoma
XF 498 CNS = system: XF 498 CNS
HL-60(TB) leukemia = system: HL-60(TB) leukemia
HOP-62 NSCLC = system: HOP-62 NSCLC
UACC-62 melanoma = system: UACC-62 melanoma
SW-620 colon = system: SW-620 colon
SF-295 CNS = system: SF-295 CNS
ACHN renal = system: ACHN renal
EKVX NSCLC = system: EKVX NSCLC
DLD-1 colon = system: DLD-1 colon
HOP-92 NSCLC = system: HOP-92 NSCLC
HCC-2998 colon = system: HCC-2998 colon
OVCAR-5 ovarian = system: OVCAR-5 ovarian
SNB-78 CNS = system: SNB-78 CNS
LOX IMVI melanoma = system: LOX IMVI melanoma
DMS 114 small cell lung = system: DMS 114 small cell lung
A498 renal = system: A498 renal
DMS 273 small cell lung = system: DMS 273 small cell lung

Measured: TGI

COc1ccc2ccccc2c1C1=NC(C)(C)CO1
not listed: HCC-2998 colon | OVCAR-5 ovarian | SNB-78 CNS | LOX IMVI melanoma | DMS 114 small cell lung | A498 renal | DMS 273 small cell lung
> 100 µM: all other assays above

COc1ccc(-c2c(C3=NCCCN3)nnn2-c2ccccc2)cc1
not listed: RXF-631 renal
> 100 µM: all other assays above

Source: PubChem BioAssay (NCI)
